The record followed here is patent US8232245B2, “Caspofungin formulations” (Sandoz AG, priority 2006, dated 2012).

The series can be described thus: Solubility / dissolution in water and solid form stability of caspofungin propionate. In kind it is physicochemical.

Bounds are passed on as bounds.

As to `CCC(C)CC(C)CCCCCCCCC(=O)N[C@H]1C[C@@H](O)[C@@H](NCCN)NC(=O)[C@@H]2[C@@H](O)CCN2C(=O)[C@H]([C@H](O)CCN)NC(=O)[C@H]([C@H](O)[C@@H](O)c2ccc(O)cc2)NC(=O)[C@@H]2C[C@@H](O)CN2C(=O)[C@H]([C@@H](C)O)NC1=O` (stereo partly drawn) [Caspofungin dipropionate, caspofungin dipropionate], for the setting “533.5 mg crystalline salt in 5 ml aqueous mannitol 40 mg/ml / sucrose 60 mg/ml”, the time to dissolve is not above 3 min.

Take `CCC(C)CC(C)CCCCCCCCC(=O)N[C@H]1C[C@@H](O)[C@@H](NCCN)NC(=O)[C@@H]2[C@@H](O)CCN2C(=O)[C@H]([C@H](O)CCN)NC(=O)[C@H]([C@H](O)[C@@H](O)c2ccc(O)cc2)NC(=O)[C@@H]2C[C@@H](O)CN2C(=O)[C@H]([C@@H](C)O)NC1=O` (stereo partly drawn) [Crystalline caspofungin propionate, caspofungin propionate]: the solubility in water entry is given as “freely soluble in water”. Where the note is “crystalline versus amorphous form”, the “stability of solid form” value is on record as “more stable than the amorphous form”.
